Experimental data taken from patent US11530237B2, “Compositions and methods for treating CNS disorders” (Sage Therapeutics, Inc., priority 2014, dated 2022).
pIC50: −log10 of the molar value.

What follows are compounds tested against [35S]-TBPS binding, rat brain cortical membranes (assay: Steroid inhibition of TBPS binding ([35S]-TBPS radioligand displacement)). Conditions: 3 nM [35S]-TBPS, 5 μM GABA.
Description: TBPS binding assays using rat brain cortical membranes in the presence of 5 μM GABA has been described (Gee et al, J. Pharmacol. Exp. Then 1987, 241, 346-353; Hawkinson et al, Mol. Pharmacol. 1994, 46, 977-985; Lewin, A. H et al., Mol. Pharmacol. 1989, 35, 189-194).
Briefly, cortices are rapidly removed following decapitation of carbon dioxide-anesthetized Sprague-Dawley rats (200-250 g). The cortices are homogenized in 10 volumes of […] using a glass/teflon homogenizer and centrifuged at 1500×g for 10 min at 4° C. The resultant supernatants are centrifuged at 10,000×g for 20 min at 4° C. to obtain the P2 pellets. The P2 pellets are resuspended in 200 mM NaCl/50 mM Na—K phosphate pH 7.4 buffer and centrifuged at 10,000×g for 10 min at 4° C. This washing procedure is repeated twice and the pellets are resuspended in 10 volumes of buffer. Aliquots (100 μL) of the membrane suspensions are incubated with 3 nM [^35S]-TBPS and 5 μL aliquots of test drug dissolved in dimethyl sulfoxide (DMSO) (final 0.5%) in the presence of 5 μM GABA. The incubation is brought to a final volume of 1.0 mL with buffer. […] Following a 90 min incubation at room temp, the assays are terminated by filtration through glass fiber filters (Schleicher and Schuell No. 32) using a cell harvester (Braudel) and rinsed three times with ice-cold buffer. Filter bound radioactivity is measured by liquid scintillation spectrometry. Non-linear curve fitting of the overall data for each drug averaged for each concentration is done using Prism (GraphPad).
Various compounds are or can be screened to determine their potential as modulators of [^35S]-TBPS binding in vitro. These assays are or can be performed in accordance with the above discussed procedures.
Compound CC(C(=O)[C@H]1CC[C@H]2[C@@H]3CC[C@@H]4C[C@](C)(O)CC[C@]4(C)[C@H]3CC[C@]12C)n1nccn1 (stereo in doubt) [Compound 56, (R)-1-((3R,5R,8R,9S,10S,13S,14S,17S)-3-hydroxyl-3,10,13-trimethylhexadecahydro-1H-cyclopenta[a]phenanthren-17-yl)-2-(2H-1,2,3-triazol-2-yl)propan-1-one] has a pIC50 of 7.00 to 7.30.
CC(C(=O)[C@H]1CC[C@H]2[C@@H]3CC[C@@H]4C[C@](C)(O)CC[C@]4(C)[C@H]3CC[C@]12C)n1ccnn1 (stereo in doubt) [Compound 58, (R)-1-((3R,5R,8R,9S,10S,13S,14S,17S)-3-hydroxy-3,10,13-trimethylhexadecahydro-1H-cyclopenta[a]phenanthren-17-yl)-2-(1H-1,2,3-triazol-1-yl)propan-1-one] was tested, and the pIC50 was less than 6.30.
In the case of CC(C(=O)[C@H]1CC[C@H]2[C@@H]3CC[C@@H]4C[C@](C)(O)CC[C@]4(C)[C@H]3CC[C@]12C)n1nc2ccccc2n1 (stereo in doubt) [Compound 61, (S)-2-(2H-benzo[d][1,2,3]triazol-2-yl)-1-((3R,5R,8R,9S,10S,13S,14S,17S)-3-hydroxy-3,10,13-trimethylhexadecahydro-1H-cyclopenta[a]phenanthren-17-yl)propan-1-one], the pIC50 was 6.30 to 7.00.
With CC(C(=O)[C@H]1CC[C@H]2[C@@H]3CC[C@@H]4C[C@](C)(O)CC[C@]4(C)[C@H]3CC[C@]12C)n1nnc2ccccc21 (stereo in doubt) [Compound 63, (S)-2-(1H-benzo[d][1,2,3]triazol-1-yl)-1-((3R,5R,8R,9S,10S,13S,14S,17S)-3-hydroxy-3,10,13-trimethylhexadecahydro-1H-cyclopenta[a]phenanthren-17-yl)propan-1-one] the pIC50 was 7.30 to 8.00.
C[C@@]1(O)CC[C@@]2(C)C(CC[C@H]3[C@@H]4CC[C@H](C(=O)Cn5nc6ccc(S(C)(=O)=O)cc6n5)[C@@]4(C)CC[C@@H]32)C1 (stereo in doubt) [Compound 104, 1-((3R,5R,8R,9S,10S,13S,14S,17S)-3-hydroxy-3,10,13-trimethylhexadecahydro-1H-cyclopenta[a]phenanthren-17-yl)-2-(5-(methylsulfonyl)-2H-benzo[d][1,2,3]triazol-2-yl)ethanone] showed a pIC50 greater than 8.00.
In the case of C[C@@]1(O)CC[C@@]2(C)[C@H](CC[C@@H]3[C@@H]2CC[C@]2(C)[C@@H](C(=O)Cn4cc(C#N)cn4)CC[C@@H]32)C1 [Compound 10, 1-(2-((3R,5R,8R,9S,10S,13S,14S,17S)-3-hydroxy-3,10,13-trimethylhexadecahydro-1H-cyclopenta[a]phenanthren-17-yl)-2-oxoethyl)-1H-pyrazole-4-carbonitrile], the pIC50 was greater than 8.00.
For C[C@@]1(O)CC[C@@]2(C)[C@H](CC[C@@H]3[C@@H]2CC[C@]2(C)[C@@H](C(=O)CN4CCOCC4)CC[C@@H]32)C1 [Compound 43, 1-((3R,5R,8R,9S,10S,13S,14S,17S)-3-hydroxy-3,10,13-trimethylhexadecahydro-1H-cyclopenta[a]phenanthren-17-yl)-2-morpholinoethanone], the pIC50 was 6.30 to 7.00.
C[C@@H](C(=O)[C@H]1CC[C@H]2[C@@H]3CC[C@@H]4C[C@](C)(O)CC[C@]4(C)[C@H]3CC[C@]12C)n1nccn1 [Compound 57, (S)-1-((3R,5R,8R,9S,10S,13S,14S,17S)-3-hydroxy-3,10,13-trimethylhexadecahydro-1H-cyclopenta[a]phenanthren-17-yl)-2-(2H-1,2,3-triazol-2-yl)propan-1-one] showed a pIC50 of 6.30 to 7.00.
C[C@@H](C(=O)[C@H]1CC[C@H]2[C@@H]3CC[C@@H]4C[C@](C)(O)CC[C@]4(C)[C@H]3CC[C@]12C)n1ccnn1 [Compound 59, (S)-1-((3R,5R,8R,9S,10S,13S,14S,17S)-3-hydroxy-3,10,13-trimethylhexadecahydro-1H-cyclopenta[a]phenanthren-17-yl)-2-(1H-1,2,3-triazol-1-yl)propan-1-one] showed a pIC50 of 6.30 to 7.00.
Work on C[C@H](C(=O)[C@H]1CC[C@H]2[C@@H]3CC[C@@H]4C[C@](C)(O)CC[C@]4(C)[C@H]3CC[C@]12C)n1nc2ccccc2n1 [Compound 60, (R)-2-(2H-benzo[d][1,2,3]triazol-2-yl)-1-((3R,5R,8R,9S,10S,13S,14S,17S)-3-hydroxy-3,10,13-trimethylhexadecahydro-1H-cyclopenta[a]phenanthren-17-yl)propan-1-one] yielded a pIC50 of 7.30 to 8.00.

These compounds were tested against α1β2γ2 GABAA receptors (Homo sapiens (Human), UniProt P14867+P47870) (assay: Patch clamp electrophysiology (QPatch) of recombinant α1β2γ2 GABAA receptors in LTK cells). Conditions: 10 μM test article, GABA EC20 = 2 μM, read-out: GABA (α1β2γ2) Qpatch in Ltk, % efficacy at 10 μM.
Type: cell-based
Description: Cellular electrophysiology is used to measure the pharmacological properties of our GABAA receptor modulators in heterologous cell systems. Each compound is tested for its ability to affect GABA mediated currents at a suhmaximal agonist dose (GABA EC20=2 μM). LTK cells are stably transfected with the α1β2γ2 subunits of the GABA receptor and CHO cells are transiently transfected with the α4β3δ subunits via the Lipofecatamine method. Cells were passaged at a confluence of about 50-80% and then seeded onto 35 mm sterile culture dishes containing 2 ml culture complete medium without antibiotics or antimycotics. Confluent clusters of cells are electrically coupled (Pritchett et al., Science, 1988, 242, 1306-1308). Because responses in distant cells are not adequately voltage clamped and because of uncertainties about the extent of coupling (Verdoom et al., Neuron 1990, 4, 919-928), cells were cultivated at a density that enables the recording of single cells (without visible connections to other cells).
Whole cell currents were measured with HEKA EPC-10 amplifiers using PatchMaster software or by using the high throughput QPatch platform (Sophion). Bath solution for all experiments contained (in mM): NaCl 137 mM, KCl 4 mM, CaCl2 1.8 mM, MgCl2 1 mM, HEPES 10 mM, D-Glucose 10 mM, pH (NaOH) 7.4. In some cases 0.005% cremophor was also added. Intracellular (pipette) solution contained: KCl 130 mM, MgCl2 1 mM, Mg-ATP 5 mM, HEPES 10 mM, EGTA 5 mM, pH 7.2. During experiments, cells and solutions were maintained at room temperature (19° C.-30° C.). For manual patch clamp recordings, cell culture dishes were placed on the dish holder of the microscope and continuously perfused (1 ml/min) with bath solution. After formation of a Gigaohm seal between the patch electrodes and the cell (-ipette resistance range: 2.5 MΩ-6.0 MΩ; seal resistance range:>1 GΩ) the cell membrane across the pipette tip was ruptured to assure electrical access to the cell interior (whole-cell patch-configuration). For experiments using the QPatch system, cells were transferred as suspension to the QPatch system in the bath solution and automated whole cell recordings were performed.
Cells were voltage clamped at a holding potential of −80 mV. For the analysis of test articles, GABA receptors were stimulated by 2 μM GABA after sequential pre-incubation of increasing concentrations of the test article. Pre-incubation duration was 30 s and the duration of the GABA stimulus was 2s. Test articles were dissolved in DMSO to form stock solutions (10 mM). Test articles were diluted to 0.01, 0.1, 1, and 10 μM in bath solution. All concentrations of test articles were tested on each cell. The relative percentage potentiation was defined as the peak amplitude in response to GABA EC20 in the presence of the test article divided by the peak amplitude in response to GABA EC20 alone, multiplied by 100. For Table 2. GABAA receptors α1β2γ2 and α4β3δ% efficacy: “A” 10-100, “B”>100-500, “C”>500; D indicates the data is not available or has not been determined.
CNC(=O)c1cnn(CC(=O)[C@H]2CC[C@H]3[C@@H]4CC[C@H]5C[C@@](O)(COC)CC[C@]5(C)[C@H]4CC[C@]23C)c1 [Compound 161] gave an Emax at 10 µM of 10 to 100%.
For COC[C@@]1(O)CC[C@@]2(C)[C@@H](CC[C@@H]3[C@@H]2CC[C@]2(C)[C@@H](C(=O)Cn4nc5ccc(Cl)cc5n4)CC[C@@H]32)C1 [Compound 165], the Emax at 10 µM was 100 to 500%.
In the case of COc1cnn(CC(=O)[C@H]2CC[C@H]3[C@@H]4CC[C@@H]5C[C@](C)(O)CC[C@]5(C)[C@H]4CC[C@]23C)c1 [Compound 166], the Emax at 10 µM was 100 to 500%.
C[C@@]1(O)CC[C@@]2(C)[C@H](CC[C@@H]3[C@@H]2CC[C@]2(C)[C@@H](C(=O)Cn4cc(C(N)=O)cn4)CC[C@@H]32)C1 [Compound 167] showed an Emax at 10 µM of 100 to 500%.
CNC(=O)c1cnn(CC(=O)[C@H]2CC[C@H]3[C@@H]4CC[C@@H]5C[C@](C)(O)CC[C@]5(C)[C@H]4CC[C@]23C)c1 [Compound 168] gave an Emax at 10 µM of 100 to 500%.
With CN(C)C(=O)c1cnn(CC(=O)[C@H]2CC[C@H]3[C@@H]4CC[C@@H]5C[C@](C)(O)CC[C@]5(C)[C@H]4CC[C@]23C)c1 [Compound 169] the Emax at 10 µM was 100 to 500%.
CC(=O)Nc1cnn(CC(=O)[C@H]2CC[C@H]3[C@@H]4CC[C@@H]5C[C@](C)(O)CC[C@]5(C)[C@H]4CC[C@]23C)c1 [Compound 171] showed an Emax at 10 µM of 100 to 500%.
Work on Cc1cn(CC(=O)[C@H]2CC[C@H]3[C@@H]4CC[C@@H]5C[C@](C)(O)CC[C@]5(C)[C@H]4CC[C@]23C)cn1 [Compound 172] yielded an Emax at 10 µM of 100 to 500%.
CC(C)Oc1cnn(CC(=O)[C@H]2CC[C@H]3[C@@H]4CC[C@@H]5C[C@](C)(O)CC[C@]5(C)[C@H]4CC[C@]23C)c1 [Compound 173] gave an Emax at 10 µM of 100 to 500%.
For Cc1nccn1CC(=O)[C@H]1CC[C@H]2[C@@H]3CC[C@@H]4C[C@](C)(O)CC[C@]4(C)[C@H]3CC[C@]12C [Compound 174], the Emax at 10 µM was 100 to 500%.
Work on COC[C@@]1(O)CC[C@@]2(C)[C@@H](CC[C@@H]3[C@@H]2CC[C@]2(C)[C@@H](C(=O)Cn4cnc(C#N)c4)CC[C@@H]32)C1 [Compound 178] yielded an Emax at 10 µM greater than 500%.
Compound C[C@@]1(O)CC[C@@]2(C)[C@@H](CC[C@H]3[C@@H]4CC[C@H](C(=O)Cn5cc(C#N)cn5)[C@@]4(C)CC(=O)[C@@H]32)C1 [Compound 196] has an Emax at 10 µM of 100 to 500%.
